Source: patent US20160100572A1, “Enhancement Of Insecticides Against Codling Moth (Lepidoptera: Tortricidae) With L-Aspartate” (priority 2014, published 2016)
Where two headings read alike, the source gives them in different places.

What was measured:
codling moth neonates [1] = conditions: residues on artificial diet surface; cited from earlier work
codling moth neonates [2] = conditions: cited from earlier work
codling moth larvae = assay: Insecticide enhancement with L-aspartate: field trials, fruit damage; assay type: in vivo, Cydia pomonella; conditions: for fruit damage reduced by: L-aspartate added to insecticides
Procedure: Field trials were performed in 2010, 2011, and 2012 in a research orchard at the Missouri State Fruit Experiment Station in Mountain Grove, Mo. […] A 1-hectare apple research block was set up for the research. […] To combat these pests and diseases, the block was treated with a standard program of fungicides and insecticides alone or with addition of L-aspartate. An untreated 0.5-hectare refuge for the lepidopteran pests consisting of apple trees that were not treated with fungicides or insecticides was set up on the periphery of the block to provide moderate pressure from the pests, including codling moth.
The same experimental routine was followed each year. Apple trees of Stark Gala variety on M7A rootstock were used in fully randomized design for eight replicates and three treatments (a given insecticide alone, L-aspartate in combination with a given insecticide, and untreated control). Codling moth populations in experimental plots were monitored using delta traps baited with 0.16% codlemone (8E,10E-dodecadien-1-ol). Whenever a weekly count of codling moth males in the traps reached or exceeded five males per trap, an insecticide was applied within the next 1-2 days.
For each replicate, one tree received a spray with an insecticide tank-mixed with L-aspartate. Concentration of L-aspartate was 211 g/100 liters, which corresponded to 395 g/ha. Next, one tree in each replicate was sprayed with the respective insecticide only. Surf-Ac 820 (2.1 kg/ha, 50 g/100 liters) was used as a surfactant in either spray with L-aspartate-insecticide combination or with the respective insecticide only. In addition, one tree in each replicate was left untreated.
Sprays (at delivery rate=4673 liters/ha) were performed using a custom-made motorized handgun sprayer with nine separate tanks (Friend Manufacturing Corporation, Gasport, N.Y.) capable of sending the spray precisely into canopy of height up to 4 meters. To minimize spray drift, a tarpaulin screen was used.
Each year, 200 apples were sampled from each experimental trees treated with insecticide-L-asparate combination, each control tree (treated with insecticides only), and from each untreated tree. One hundred apples per tree were collected 2 weeks after the first flight of codling moth (May 2010, early June in 2011, and May 2012). Remaining apples (100 per tree) were collected at harvest (August in 2010 and 2011 and July in 2012). […] Briefly, 33-34 apples were collected from each of three zones within the canopy (close to the trunk, from the middle of the distance in between the trunk and the tips of the branches, and from the outside portion of the canopy to within 10-15 cm inside). Each time a vertical area from the bottom to the top of the canopy was randomly sampled in a circuitous design around the tree. The apples were immediately weighed and inspected for damage in the laboratory. Once damage was found, the fruit was carefully fragmented with a paring knife, and internal fruit feeders (in some fruits larvae of oriental fruit moth were found) were collected and examined under a stereomicroscope. Codling moth larvae were discriminated from oriental fruit moth larvae by absence of anal comb (Il'ichev et al. 2006). […] Apple weight was expressed as average±SEM weight. Damage was expressed as average±SEM percentage of sampled fruit that was infected by codling moth larvae.

codling moth neonates [3] = assay type: in vivo; conditions: addition of 1 mg/ml L-aspartate; LC50 alone divided by LC50 with L-aspartate
Procedure: (§1) Codling moth adults (C. pomonella) were obtained from the U.S. Department of Agriculture Research Service (USDAD ARS) at Yakima, Wash. The moths were kept at 25° C., 70-80% relative humidity, and a photoperiod of 16:8 (L:D) h. Polyethylene foil was provided as an oviposition surface. […] In all experiments, 0.5-1 hour posthatch neonates were used.

codling moth neonates [4] = assay: Foliage consumption on foliage treated with LC30 of insecticide alone or with L-aspartate; assay type: in vivo, Cydia pomonella; conditions: LC30 of insecticide alone or with 1 mg/ml L-aspartate, 24 hours
codling moth neonates [5] = assay: Feeding stimulation by L-aspartate on treated apple leaf sections; assay type: in vivo, Cydia pomonella
Procedure: as §1
Feeding Stimulation by L-Aspartate. The feeding behavior of test larvae was assessed on apple leaf sections treated with L-aspartate solutions, and by a quantitative analysis of the amounts of leaf tissue ingested. Briefly, L-aspartate was dissolved in 0.02% Triton X-100 in distilled water, and the following concentrations were used for treatment of experimental sections: 0.01, 0.1, and 1 mg/ml. Control leaves were treated with the 0.02% aqueous Triton X-100 only. Circular sections of uniform size (12 mm in diameter) were removed from Honeycrisp (U.S. Pat. No. 7,197) foliage, avoiding the leaf rib area. Test solutions (10 μl) were distributed over the upper surface of the excised sections that subsequently were allowed to air-dry. […] Treated sections were placed in bioassay stations and each section was infested with one neonate larva. The surface area of each leaf disc that was consumed was determined using a stereomicroscope equipped with an ocular square mesh reference scale (No. 12-561-RG2; Fisher, Pittsburgh, Pa.). Thirty-three fragments of leaves, chosen randomly from […] of the leaves, were also measured visually and then dried and weighed to establish a relationship between optical measurement and weight of foliage consumed. Based on this determination, consumed areas of the leaf were converted to an estimated dry weight of leaf tissue.
Thirty to forty neonate larvae were tested individually to each concentration of L-aspartate. The amount of leaf tissue consumed by neonates was estimated 3 and 24 hours after infestation of each bioassay station, and was expressed as average (mean±SEM) leaf consumption.

[6] = system: Drosophila N-methyl-D-aspartate (NMDA) receptors; conditions: excitation of receptors; cited from earlier work
[7] = system: neonates of Choristoneura rosaceana; conditions: 24 hours, concentrations as low as 0.6 ppm (AI); cited from earlier work
codling moth neonates [8] = conditions: earlier studies, cited from earlier work
[9] = system: fourth-instar larvae of Spodoptera littoralis; conditions: fed artificial diet; cited from earlier work
[10] = system: fourth-instar larvae of Heliothis virescens; conditions: fed artificial diet; cited from earlier work
Spodoptera frugiperda = conditions: Nu-Lure, Coax or Konsume, concentrations as high as 10%; cited from earlier work
[11] = addition of 0.1% Coax; cited from earlier work

C/C(=N\C#N)N(C)Cc1ccc(Cl)nc1 [acetamiprid]
LC50 with 95% confidence (codling moth neonates [1]): 1.35 to 2.06 mg (AI)/liter

NC1(C(=O)O)CC(C(=O)O)C1 (stereo not drawn) [trans-ACBD]
reduction of insecticide active ingredient without sacrificing efficacy (codling moth neonates [2]; in vivo): > 50%

N[C@@H](CC(=O)O)C(=O)O [L-aspartate, L-Aspartic acid]
fruit damage by first-generation neonates after addition of L-aspartate to insecticide sprays (codling moth larvae; 2010): < 1%
fruit damage by first-generation neonates after addition of L-aspartate to insecticide sprays (codling moth larvae; 2011): 1.2%
fruit damage by first-generation neonates after addition of L-aspartate to insecticide sprays (codling moth larvae; 2012): 1%
fruit damage reduced by (codling moth larvae; first generation): 5%
fruit damage reduced by (codling moth larvae; second generation): 15%
efficacy increased by a factor (enhancement ratio) (codling moth neonates [3]): approximately 10
foliage consumption (codling moth neonates [4]): maintained its feeding stimulatory properties even in the presence of each insecticide
concentration at which food consumption increased (codling moth neonates [5]; 3-hour assays): 1 mg/mL
lowest effective concentration increasing food consumption (codling moth neonates [5]; 24-hour assays): 0.1 mg/mL
increased foliage consumption in comparison with control (codling moth neonates [5]; 3 hours, 1 mg/ml L-aspartate): approximately 60%
increased foliage consumption in comparison with control (codling moth neonates [5]; 24 hours, 0.1 mg/ml L-aspartate): approximately 30%
increased foliage consumption in comparison with control (codling moth neonates [5]; 24 hours, 1 mg/ml L-aspartate): approximately 40%
potency relative to glutamate [6]: about five times less potent than glutamate

spinetoram
mortality [7]: 100%

N[C@@H](CCC(=O)O)C(=O)[O-].[Na+] [monosodium glutamate]
concentration at which food consumption increased (codling moth neonates [8]; 3-hour assays): 0.03 mg/mL
effective concentration increasing food consumption (codling moth neonates [8]; 24-hour assays): 0.05 mg/mL

CC1(C)C(C=C(Cl)Cl)C1C(=O)OC(C#N)c1ccc(F)c(Oc2ccccc2)c1 (stereo not drawn) [β-cyfluthrin]
LC50 [9]: 0.1 μg/g of diet
LC50 [10]: 3.1 μg/g of diet

CCc1ccc(C(=O)NN(C(=O)c2cc(C)cc(C)c2)C(C)(C)C)cc1 [tebufenoside]
mortality on adding phagostimulants (Spodoptera frugiperda): unable to significantly increase mortality

O=C(NC(=O)c1c(F)cccc1F)Nc1ccc(Cl)cc1 [diβubenzuron]
mortality on adding phagostimulants (Spodoptera frugiperda): unable to significantly increase mortality

spinosad
efficacy enhancement (codling moth neonates [2]; addition of trans-ACBD): enhanced almost two times

CC1(C)[C@H](C(=O)O[C@H](C#N)c2cccc(Oc3ccccc3)c2)[C@@H]1C=C(Br)Br [delthamethrin]
toxicity increased (times) [11]: 11.3 times

CC1(C)C(C=C(Cl)Cl)C1C(=O)OC(C#N)c1cccc(Oc2ccccc2)c1 (stereo not shown) [cypermethrin]
toxicity increased (times) [11]: 2.4 times
